Data: patent US5801183A, “Aza and aza (N-oxy) analogs of glycine/NMDA receptor antagonists” (priority 1995, dated 1998)

Tests used:
rodents = rodents / animal models; cited from earlier work
pigeons = details: cited from earlier work
[1] = system: glycine binding site of the NMDA receptor; details: cited from earlier work
[2] = in vivo; cited from earlier work
glycine/NMDA receptor = biological target: T1, glycine/NMDA receptor (Rattus norvegicus, UniProt P35439); experiment: affinity at the glycine/NMDA receptor; assay type: binding
T1 construct: rat brain membrane homogenates that are enriched in NMDA receptors; tissue Pel-Freez, Rogers, Ark; host or cells: frozen rat brain, membrane homogenate
Method: (§1) The affinity of the compounds for the NMDA receptor glycine site also was measured by inhibition of [^3 H]DCKA binding to rat brain membranes. See, Canton, T. et al., J. Pharm. Pharmacol. 44:812-816 (1992).
The glycine antagonist potency in vitro may be determined using a 1 μM glycine-stimulated [^3 H]-MK801 binding assay. This assay takes advantage of the fact that the binding of [^3 H]-MK801 to the PCP receptor inside the pore of the NMDA channel is dependent on the presence of both glutamate and glycine. […]
The assay is conducted using rat brain membrane homogenates that are enriched in NMDA receptors. […] The final pellet is suspended in three volumes of 50 mM HEPES, pH 7.4 and the protein concentration is determined with a standard dye-binding protein assay (Bio-Rad, Richmond, Calif.). […]
On the day of the assay, the previously prepared membranes are thawed and 5 mM Tris/HCl buffer, pH 7.4, is added to yield a final protein concentration of 0.156 mg/mL. […] To determine the effect of 1 μM glycine on the binding of [^3 H]-MK801, bound radioactivity in the presence of 10 μM glutamate alone (final concentration) is subtracted from the bound radioactivity in the presence of both 10 μM glutamate and 1 μM glycine (final concentration). […]

mice = experiment: maximum electroshock-induced seizure (MES) assay in mice; assay type: in vivo, male Swiss/Webster mice; details: Mus musculus, iv, drug applied i.v. as an aqueous basic solution, read-out: ED50 as an anticonvulsant in a MES experiment in mice
From the text: The anticonvulsant activity of the glycine antagonists may be assessed in the maximum electroshock-induced seizure (MES) assay in mice. Electroshock was applied to male Swiss/Webster mice (20-30 g, Simonsen) through corneal electrodes (Swinyard, E. A., in Anticonvulsant Drugs, Mercier, J., ed., Pergamon Press, Oxford (1973), pp. 47-65). The seizure stimulus parameters were: 50 mA, 60 Hz, rectangular pulse, width 0.8 msec, duration 200 msec. Tonic hind limb extension observed after application of the electrical stimulus was recorded as occurrence of seizure. The drug was applied i.v. as an aqueous basic solution.

[3] = biological target: T2, NMDA receptor glycine site (Rattus norvegicus, UniProt P35439); experiment: inhibition of [3H]DCKA binding to rat brain membranes
T2 construct: from tissue; host or cells: rat brain membranes
Method: as §1

log P (literature) = assay type: physicochemical; details: from benzene to the named substance
PCP receptor = details: Wong et al., PNAS 83:7104-7108 (1986); cited from earlier work

SMILES	binding affinity for the glycine site (in words) [1]	blood/brain barrier penetration [2]	other results
c1ccc(C2(N3CCCCC3)CCCCC2)cc1 [PCP, phencyclidine]			PCP-like behavioral effects (rodents): behavioral excitation (hyperlocomotion) in rodents; katalepsy in pigeons (pigeons): characteristic katalepsy in pigeons
O=C(O)c1cc(O)c2c(Cl)cc(Cl)cc2n1 [5,7-dichlorokynurenic acid]	relatively high receptor binding affinity in vitro	cannot penetrate the blood/brain barrier	
Oc1nc2cc(Cl)cnc2c(O)c1-c1cccc(Oc2ccccc2)c1 [5-Aza-7-chloro-4-hydroxy-3-(m-phenoxyphenyl)quinolin-2-one]			Ki (glycine/NMDA receptor): 5 nM; ED50 (mice): 3 mg/kg
N#Cc1c(=O)[nH]c2cc(Cl)c(Cl)cc2[n+]1[O-] [3-Cyano-6,7-dichloro-1,2-dihydroquinoxaline-2-one-4-oxide]			IC50 [3]: 135 nM; ED50 (mice): 5 mg/kg
NC1CCN(O)C1=O (stereo not drawn) [HA-966]	partial agonist with micromolar affinity for the glycine binding site	sufficiently penetrates the blood/brain barrier	
NCC(=O)O [glycine]			Kd ([1]; used in Cheng and Prusoff equation, read-out: known affinity for the glycine binding site of the NMDA receptor): 100 nM
[O-][n+]1ccccc1 [pyridine N-oxide]			difference in log P from benzene (log P (literature)): -3.84
C[C@]12N[C@H](Cc3ccccc31)c1ccccc12 [MK-801]			Kd (PCP receptor): ~3 nM
O=C(O)c1cc2ccccc2[nH]1 [indole-2-carboxylic acid]	relatively high receptor binding affinity in vitro	cannot penetrate the blood/brain barrier	
O=C(O)c1cc(O)c2ccc(Cl)cc2n1 [7-Cl-kynurenic acid]	relatively high receptor binding affinity in vitro	cannot penetrate the blood/brain barrier	
O=c1[nH]c2ccccc2c(O)c1[N+](=O)[O-] [4-hydroxy-3-nitro-1,2-dihydroquinolin-2-one]	high binding to the glycine receptor		
